# According to patent US20140127192A1, “METHOD FOR TREATING OSTEOPOROSIS” (AMGEN INC, priority 2011, published 2014):
# Key:
# [1] = tested on: bone resorption marker (CTX) and bone formation markers (P1NP, BSAP, OC); assay: Bone turnover markers in the same study (serum CTX, P1NP, BSAP, OC); format: in vivo, human; conditions: open label active control
# Excerpt: A subject's physiological response to an anti-sclerostin antibody can be gauged by monitoring bone marker levels. Bone markers are products created during the bone remodeling process and are released by bone, osteoblasts, and/or osteoclasts. Fluctuations in bone resorption and/or bone formation “marker” levels imply changes in bone remodeling/modeling. The International Osteoporosis Foundation (IOF) recommends using bone markers to monitor bone density therapies (see, e.g., Delmas et al., Osteoporos Int., Suppl. 6:S2-17 (2000), incorporated herein by reference). Markers indicative of bone resorption (or osteoclast activity) include, for example, C-telopeptide (e.g., C-terminal telopeptide of type 1 collagen (CTX) or serum cross-linked C-telopeptide), N-telopeptide (N-terminal telopeptide of type 1 collagen (NTX)), deoxypyridinoline (DPD), pyridinoline, urinary hydroxyproline, galactosyl hydroxylysine, and tartrate-resistant acid phosphatase (e.g., serum tartrate-resistant acid phosphatase isoform 5b). Bone formation/mineralization markers include, but are not limited to, bone-specific alkaline phosphatase (BSAP), peptides released from N- and C-terminal extension of type I procollagen (P1NP, PICP), and osteocalcin (OC). Several kits are commercially-available to detect and quantify markers in clinical samples, such as urine and blood.
# A multicenter, international, randomized, parallel group study in postmenopausal women with low BMD at lumbar vertebrae, total hip or femoral neck was conducted. 419 subjects were randomized to receive one of five regimens of an anti-sclerostin antibody, placebo, open label alendronate (ALN), or open label teriparatide (TPTD) for 12 months. The placebo group was further randomized to match the schedules corresponding to the five anti-sclerostin antibody regimens. […] BMD was measured by DXA. […]
# [2] = tested on: postmenopausal women with low BMD at lumbar vertebrae, total hip or femoral neck; assay: Randomized multicenter study, BMD measured by DXA in postmenopausal women with low BMD; format: in vivo, human; conditions: open label active control arm; for Femoral Neck BMD % Change from Baseline, Mean / Lumbar Vertebrae BMD % Change from Baseline, Mean / Total Hip BMD % Change from Baseline, Mean: 12 months; for mean percent change of lumbar vertebrae BMD from pretreatment baseline: month 6; for mean percent change of distal ⅓ radius BMD from pretreatment baseline: month 12
# Experimental: This example describes in vivo studies wherein an anti-sclerostin antibody improved bone mineral density in postmenopausal women.
# A multicenter, international, randomized, parallel group study in postmenopausal women with low BMD at lumbar vertebrae, total hip or femoral neck was conducted. 419 subjects were randomized to receive one of five regimens of an anti-sclerostin antibody, placebo, open label alendronate (ALN), or open label teriparatide (TPTD) for 12 months. The placebo group was further randomized to match the schedules corresponding to the five anti-sclerostin antibody regimens. The subject distribution was as follows: 52 subjects to the placebo arm, 51 subjects to ALN arm, 55 subjects to TPTD arm, and 51, 54, 51, 53, and 52 subjects to anti-sclerostin antibody 70 mg QM, 140 mg Q3M, 140 mg QM, 210 mg Q3M, and 210 mg QM arms, respectively. 383 subjects completed the 12 months of study. Among all subjects enrolled in the study, the mean age was 66.8 years old, 86.4% of subjects were Caucasian, and the mean pretreatment baseline lumbar vertebrae and total hip BMD T-scores were −2.29 and −1.53, respectively. The primary analysis occurred after all subjects had the opportunity to complete the month 12 study visit. BMD was measured by DXA. Overall, the proportions of patients reporting adverse events were balanced between placebo arm and anti-sclerostin antibody arms.
smiles,measurement,setting,value
"NCCCC(O)(P(=O)(O)O)P(=O)(O)O [ALN, alendronate]",adaptive response (bone formation markers falling to approximately baseline within two to six months),[1],not observed
same,"Femoral Neck BMD % Change from Baseline, Mean",[2],1.2%
same,"Lumbar Vertebrae BMD % Change from Baseline, Mean",[2],4.1%
same,"Total Hip BMD % Change from Baseline, Mean",[2],1.9%
same,mean percent change of lumbar vertebrae BMD from pretreatment baseline,[2],2.6%
same,mean percent change of distal ⅓ radius BMD from pretreatment baseline,[2],−0.3%
"CC[C@H](C)[C@H](NC(=O)[C@H](CCC(=O)O)NC(=O)[C@H](CO)NC(=O)[C@@H](NC(=O)[C@@H](N)CO)C(C)C)C(=O)N[C@@H](CCC(N)=O)C(=O)N[C@@H](CC(C)C)C(=O)N[C@@H](CCSC)C(=O)N[C@@H](Cc1cnc[nH]1)C(=O)N[C@@H](CC(N)=O)C(=O)N[C@@H](CC(C)C)C(=O)NCC(=O)N[C@@H](CCCCN)C(=O)N[C@@H](Cc1cnc[nH]1)C(=O)N[C@@H](CC(C)C)C(=O)N[C@@H](CC(N)=O)C(=O)N[C@@H](CO)C(=O)N[C@@H](CCSC)C(=O)N[C@@H](CCC(=O)O)C(=O)N[C@@H](CCCN=C(N)N)C(=O)N[C@H](C(=O)N[C@@H](CCC(=O)O)C(=O)N[C@@H](Cc1c[nH]c2ccccc12)C(=O)N[C@@H](CC(C)C)C(=O)N[C@@H](CCCN=C(N)N)C(=O)N[C@@H](CCCCN)C(=O)N[C@@H](CCCCN)C(=O)N[C@@H](CC(C)C)C(=O)N[C@@H](CCC(N)=O)C(=O)N[C@@H](CC(=O)O)C(=O)N[C@H](C(=O)N[C@@H](Cc1cnc[nH]1)C(=O)N[C@@H](CC(N)=O)C(=O)N[C@@H](Cc1ccccc1)C(=O)O)C(C)C)C(C)C [TPTD, teriparatide]",adaptive response (bone formation markers falling to approximately baseline within two to six months),[1],not observed
same,bone formation markers over the course of treatment,[1],remained elevated
same,"Femoral Neck BMD % Change from Baseline, Mean",[2],1.1%
same,"Lumbar Vertebrae BMD % Change from Baseline, Mean",[2],7.1%
same,"Total Hip BMD % Change from Baseline, Mean",[2],1.3%
same,mean percent change of lumbar vertebrae BMD from pretreatment baseline,[2],4.8%
same,mean percent change of distal ⅓ radius BMD from pretreatment baseline,[2],−1.7%
